What is called DC50 is the concentration at which degradation of the target reaches its halfway point. High values mean a less potent degrader, low ones a more potent degrader. As a reminder, the Kd is a measure of binding affinity in units of concentration. Higher therefore signals a looser complex.

One assay has as its target T1, GSPT1 (Homo sapiens, UniProt P15170+Q96SW2).
T1 construct: host or cells: HEK293 LgBiT / GSPT1 HiBiT CRISPR knock-in
As to the kind of experiment: GSPT1 HiBiT degradation assay. The settings on record: HEK293 LgBiT GSPT1 HiBiT cells, 6 hours. Format: cell-based. The procedure, abridged:
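HEK293 CRISPR knock-in cells expressing LgBiT and GSPT1-HiBiT were seeded at 1000 cells/well and, after 18-24 h, treated with titrated compound plus endurazine (0.5× final) at 37 °C. Luminescence read after 6 h; loss of signal reflects GSPT1 degradation, giving DC50.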

Assay [1] has as its target T2, EGFR T790M, L858R (amino acids 669-1011) (Homo sapiens, UniProt P00533, L858R/T790M).
T2 construct: purchased Eurofins Discovery (KdELECT); host or cells: mammalian cells (HEK-293)
As to the kind of experiment: KdELECT binding assay, EGFR T790M, L858R.

The target of assay [2] is T3, EGFR WT (amino acids 669-1011) (Homo sapiens, UniProt P00533).
T3 construct: purchased Eurofins Discovery (KdELECT); host or cells: bacteria (E. coli BL21-derived, T7 phage)
As to the kind of experiment: KdELECT binding assay, EGFR WT.

T2 sequence (P00533 669-1011 T790M/L858R): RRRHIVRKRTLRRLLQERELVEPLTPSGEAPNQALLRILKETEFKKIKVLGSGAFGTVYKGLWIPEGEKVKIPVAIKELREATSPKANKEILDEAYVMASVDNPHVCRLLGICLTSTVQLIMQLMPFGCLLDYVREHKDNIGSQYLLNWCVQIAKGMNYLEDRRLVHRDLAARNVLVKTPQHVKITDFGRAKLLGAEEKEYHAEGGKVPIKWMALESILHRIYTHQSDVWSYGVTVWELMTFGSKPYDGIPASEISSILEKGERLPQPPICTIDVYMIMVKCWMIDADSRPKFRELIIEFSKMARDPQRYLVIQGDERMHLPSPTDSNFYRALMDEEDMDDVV
T1 sequence (P15170 whole entry): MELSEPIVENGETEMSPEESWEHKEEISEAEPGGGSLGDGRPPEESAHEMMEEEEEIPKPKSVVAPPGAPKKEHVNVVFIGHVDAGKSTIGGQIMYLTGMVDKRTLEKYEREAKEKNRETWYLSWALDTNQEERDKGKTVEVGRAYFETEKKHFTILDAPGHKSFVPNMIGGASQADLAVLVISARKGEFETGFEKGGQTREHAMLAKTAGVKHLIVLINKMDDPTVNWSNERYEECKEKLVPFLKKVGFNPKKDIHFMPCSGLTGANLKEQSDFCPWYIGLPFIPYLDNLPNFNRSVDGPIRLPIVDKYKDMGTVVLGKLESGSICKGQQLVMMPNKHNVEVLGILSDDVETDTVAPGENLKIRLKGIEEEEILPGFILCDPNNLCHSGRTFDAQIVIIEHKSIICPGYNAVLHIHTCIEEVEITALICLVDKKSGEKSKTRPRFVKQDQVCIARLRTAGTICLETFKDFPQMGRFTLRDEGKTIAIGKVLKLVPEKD
T1 sequence (Q96SW2 whole entry): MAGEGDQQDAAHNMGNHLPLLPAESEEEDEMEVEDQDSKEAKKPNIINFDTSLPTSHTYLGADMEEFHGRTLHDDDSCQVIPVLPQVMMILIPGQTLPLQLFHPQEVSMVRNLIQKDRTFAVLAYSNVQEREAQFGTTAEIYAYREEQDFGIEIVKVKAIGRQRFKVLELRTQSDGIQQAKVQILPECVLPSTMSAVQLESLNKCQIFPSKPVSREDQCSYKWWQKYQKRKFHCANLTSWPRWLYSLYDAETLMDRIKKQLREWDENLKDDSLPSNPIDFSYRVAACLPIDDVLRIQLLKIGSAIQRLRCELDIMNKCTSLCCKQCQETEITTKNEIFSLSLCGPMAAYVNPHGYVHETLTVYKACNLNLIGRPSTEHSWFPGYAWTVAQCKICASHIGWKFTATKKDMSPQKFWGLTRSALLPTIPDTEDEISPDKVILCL
T1 sequence (Q16531 whole entry partner): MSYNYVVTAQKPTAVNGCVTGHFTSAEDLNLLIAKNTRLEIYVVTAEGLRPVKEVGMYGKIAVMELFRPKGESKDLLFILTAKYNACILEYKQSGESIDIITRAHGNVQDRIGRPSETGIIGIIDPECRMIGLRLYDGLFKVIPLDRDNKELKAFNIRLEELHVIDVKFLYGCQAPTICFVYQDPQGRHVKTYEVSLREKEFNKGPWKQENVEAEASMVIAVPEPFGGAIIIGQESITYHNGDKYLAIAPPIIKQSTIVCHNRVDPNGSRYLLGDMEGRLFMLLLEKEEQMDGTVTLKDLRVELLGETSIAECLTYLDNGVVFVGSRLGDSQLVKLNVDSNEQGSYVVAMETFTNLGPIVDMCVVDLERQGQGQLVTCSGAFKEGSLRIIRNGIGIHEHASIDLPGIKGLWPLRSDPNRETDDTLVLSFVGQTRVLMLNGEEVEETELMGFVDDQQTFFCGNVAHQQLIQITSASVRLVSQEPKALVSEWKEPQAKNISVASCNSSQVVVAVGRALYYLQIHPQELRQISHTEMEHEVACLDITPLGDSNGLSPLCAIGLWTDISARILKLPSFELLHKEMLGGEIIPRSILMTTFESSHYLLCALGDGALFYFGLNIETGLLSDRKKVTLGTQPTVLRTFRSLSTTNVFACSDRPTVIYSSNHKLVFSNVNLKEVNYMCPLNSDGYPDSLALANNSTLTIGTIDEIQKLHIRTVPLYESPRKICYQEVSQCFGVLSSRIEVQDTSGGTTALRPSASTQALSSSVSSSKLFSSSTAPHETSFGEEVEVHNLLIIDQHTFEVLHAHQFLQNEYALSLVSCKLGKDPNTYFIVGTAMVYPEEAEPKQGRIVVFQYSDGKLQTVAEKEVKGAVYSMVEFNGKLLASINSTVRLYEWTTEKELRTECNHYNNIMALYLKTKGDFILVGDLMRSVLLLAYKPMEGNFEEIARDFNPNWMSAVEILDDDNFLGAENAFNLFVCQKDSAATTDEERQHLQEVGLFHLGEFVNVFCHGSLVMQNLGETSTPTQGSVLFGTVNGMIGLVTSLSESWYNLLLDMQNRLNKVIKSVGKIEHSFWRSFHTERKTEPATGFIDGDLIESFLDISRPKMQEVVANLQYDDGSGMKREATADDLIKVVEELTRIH
T3 sequence (P00533 669-1011): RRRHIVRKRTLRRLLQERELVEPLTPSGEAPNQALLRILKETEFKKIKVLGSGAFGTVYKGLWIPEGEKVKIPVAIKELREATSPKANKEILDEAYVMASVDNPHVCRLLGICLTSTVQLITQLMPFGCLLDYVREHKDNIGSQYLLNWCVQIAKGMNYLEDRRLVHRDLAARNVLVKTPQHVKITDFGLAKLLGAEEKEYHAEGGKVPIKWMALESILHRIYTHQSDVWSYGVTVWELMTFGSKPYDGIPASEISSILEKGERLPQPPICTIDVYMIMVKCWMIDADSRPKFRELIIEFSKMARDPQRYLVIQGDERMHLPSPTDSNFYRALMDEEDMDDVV

In turn, `C=C(COc1ccc(Cl)cc1NC(=O)NCc1ccc2c(c1)CN(C1CCC(=O)NC1=O)C2=O)C(=O)N[C@@H]1CN(c2nc(Nc3cn(C)nc3OC)c3ncn(C)c3n2)C[C@H]1F` (stereo partly drawn) [Compound I-47] came in with a DC50 on GSPT1 of 50 to 500 nM. Also, the Kd in assay [1] and in assay [2] was below 50 nM in each case.
Take `C=C(CN1C(=O)CCC(N2Cc3cc(CNC(=O)Nc4ccc(C)c(Cl)c4)ccc3C2=O)C1=O)C(=O)Nc1cc(Nc2ncc(-c3cn(C)c4ccccc34)cn2)c(OC)cc1N(C)CCN(C)C` (stereo not drawn) [Compound I-87]: the 50% degradation concentration (DC50) on GSPT1 is 50 to 500 nM. Besides, the values for the Kd in assay [1] and in assay [2] were below 50 nM and above 2500 nM, respectively.

Values taken from patent publication US20240408093A1, “HETEROBIFUNCTIONAL COMPOUNDS AND THEIR USE IN TREATING DISEASE” (HALDA THERAPEUTICS OPCO, INC., priority 2022, published 2024).
